Results published in US10160747B2, “Compounds and methods for kinase modulation, and indications therefor” (Plexxikon Inc., priority 2016, dated 2018).

What was measured:
Assay type in all cases: biochemical
[1] = target: T1, FLT3-ITD (Homo sapiens, UniProt P36888); experiment: FLT3-ITD recombinant enzyme kinase assay (AlphaScreen); conditions: 8 pt; read-out: FLT3_ITD 8 pt: IC50
T1 sequence (P36888 1-993): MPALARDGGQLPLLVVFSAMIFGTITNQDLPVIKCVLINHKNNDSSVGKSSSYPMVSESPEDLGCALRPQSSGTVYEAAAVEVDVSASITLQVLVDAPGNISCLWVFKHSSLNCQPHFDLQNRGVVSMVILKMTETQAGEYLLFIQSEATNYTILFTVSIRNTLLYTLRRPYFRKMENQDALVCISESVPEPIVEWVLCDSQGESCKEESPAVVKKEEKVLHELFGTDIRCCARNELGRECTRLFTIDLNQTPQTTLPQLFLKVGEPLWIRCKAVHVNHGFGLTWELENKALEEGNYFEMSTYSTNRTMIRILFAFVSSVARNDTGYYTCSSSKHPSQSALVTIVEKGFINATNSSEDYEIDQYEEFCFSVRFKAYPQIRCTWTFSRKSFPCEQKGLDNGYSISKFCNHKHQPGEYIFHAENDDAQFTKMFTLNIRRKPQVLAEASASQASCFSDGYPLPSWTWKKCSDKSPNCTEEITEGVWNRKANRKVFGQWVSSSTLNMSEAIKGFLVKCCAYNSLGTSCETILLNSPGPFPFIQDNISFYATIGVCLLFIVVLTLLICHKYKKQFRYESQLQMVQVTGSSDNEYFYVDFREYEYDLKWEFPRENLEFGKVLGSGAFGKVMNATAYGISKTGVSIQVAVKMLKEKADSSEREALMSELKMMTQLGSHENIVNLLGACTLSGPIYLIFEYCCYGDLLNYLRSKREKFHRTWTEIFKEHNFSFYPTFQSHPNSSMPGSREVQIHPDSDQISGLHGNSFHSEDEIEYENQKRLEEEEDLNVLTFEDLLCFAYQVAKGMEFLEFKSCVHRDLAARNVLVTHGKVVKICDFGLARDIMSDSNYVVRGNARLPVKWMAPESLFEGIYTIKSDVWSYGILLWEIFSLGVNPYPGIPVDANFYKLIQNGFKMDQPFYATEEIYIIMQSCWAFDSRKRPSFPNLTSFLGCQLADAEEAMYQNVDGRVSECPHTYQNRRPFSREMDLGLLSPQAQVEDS
Procedure: (§1) In order to determine the effect of compounds on FLT3 catalytic activity, kinase assays using recombinant enzymes and AlphaScreen® technology have been established. The catalytic activity of c-kit activity was also measured to determine selectivity of the compounds. When the kinases are catalytically active, they phosphorylate a biotinylated peptide substrate on tyrosine residues. Using AlphaScreen® technology, the ability of the compounds to affect the catalytic activity of the kinases can be measured quantitatively. The peptide substrate is immobilized by the AlphaScreen® Streptavidin Donor beads and, upon phosphorylation by a tyrosine kinase, can bind to AlphaScreen® Anti-Phosphotyrosine (PY20) Acceptor beads. Upon excitation of these beads with laser light at 680 nm, singlet oxygen is produced. This singlet oxygen is rapidly quenched, unless the AlphaScreen® Anti-Phosphotyrosine (PY20) Acceptor beads are in close proximity, in which case a proximity signal can be measured at 580 nm. In the presence of catalytic activity, there is a very strong proximity signal. Selective kinase inhibitors affect a decrease in this proximity signal through a decrease in tyrosine phosphorylation of the peptide substrate.
(§2) The assay was performed as summarized below.
(§3) Poly (Glu4-Tyr) Peptide, biotin conjugate [Biotin-GG(EEEEY)10EE] (SEQ ID NO: 4)
(§4) Final concentration=30 nM
(§5) Adenosine Triphosphate (ATP)
(§6) Final concentration for IC50 determination=10 μM (FLT3-D835Y or FLT3-ITD) or 100 μM (c-KIT)
(§7) AlphaScreen® Phosphotyrosine (PY20) Assay Kit
(§8) Final concentration=10 μg/mL
(§9) Dilute compounds in DMSO to 20× final concentration.
(§10) Add 1 μL of compound to each well of 384 well reaction plate (Perkin Elmer #6005359).
(§11) Mix enzyme and Poly (Glu4-Tyr) Peptide substrate at 1.33× final concentration in assay buffer.
(§12) Mix ATP at 5× final concentration in assay buffer.
(§13) Add 15 μL enzyme/substrate mixture to the reaction plate.
(§14) Add 4 μL of ATP to the reaction plate.
(§15) Mix Streptavidin Donor beads at 6× final concentration in Stop/Detection buffer.
(§16) Add 5 μL Streptavidin Donor beads to the reaction plate. Centrifuge 1 minute, shake to mix, and incubate at room temperature for 20 minutes.
(§17) Mix Anti-Phosphotyrosine (PY20) Acceptor beads at 6× final concentration in Stop/Detection buffer.
(§18) Add 5 μL Anti-Phosphotyrosine (PY20) beads to the reaction plate.
(§19) Centrifuge 1 minute, shake to mix, and incubate at room temperature for 60 minutes.
(§20) Read plate on Wallac EnVision™ 2103 Multilabel Reader.

[2] = target: T2, FLT3-D835Y (Homo sapiens, UniProt P36888, D835Y); experiment: FLT3-D835Y recombinant enzyme kinase assay (AlphaScreen); conditions: 8 pt, GMean
T2 construct: purchased Invitrogen PV3967
T2 sequence (P36888 27-993 D835Y): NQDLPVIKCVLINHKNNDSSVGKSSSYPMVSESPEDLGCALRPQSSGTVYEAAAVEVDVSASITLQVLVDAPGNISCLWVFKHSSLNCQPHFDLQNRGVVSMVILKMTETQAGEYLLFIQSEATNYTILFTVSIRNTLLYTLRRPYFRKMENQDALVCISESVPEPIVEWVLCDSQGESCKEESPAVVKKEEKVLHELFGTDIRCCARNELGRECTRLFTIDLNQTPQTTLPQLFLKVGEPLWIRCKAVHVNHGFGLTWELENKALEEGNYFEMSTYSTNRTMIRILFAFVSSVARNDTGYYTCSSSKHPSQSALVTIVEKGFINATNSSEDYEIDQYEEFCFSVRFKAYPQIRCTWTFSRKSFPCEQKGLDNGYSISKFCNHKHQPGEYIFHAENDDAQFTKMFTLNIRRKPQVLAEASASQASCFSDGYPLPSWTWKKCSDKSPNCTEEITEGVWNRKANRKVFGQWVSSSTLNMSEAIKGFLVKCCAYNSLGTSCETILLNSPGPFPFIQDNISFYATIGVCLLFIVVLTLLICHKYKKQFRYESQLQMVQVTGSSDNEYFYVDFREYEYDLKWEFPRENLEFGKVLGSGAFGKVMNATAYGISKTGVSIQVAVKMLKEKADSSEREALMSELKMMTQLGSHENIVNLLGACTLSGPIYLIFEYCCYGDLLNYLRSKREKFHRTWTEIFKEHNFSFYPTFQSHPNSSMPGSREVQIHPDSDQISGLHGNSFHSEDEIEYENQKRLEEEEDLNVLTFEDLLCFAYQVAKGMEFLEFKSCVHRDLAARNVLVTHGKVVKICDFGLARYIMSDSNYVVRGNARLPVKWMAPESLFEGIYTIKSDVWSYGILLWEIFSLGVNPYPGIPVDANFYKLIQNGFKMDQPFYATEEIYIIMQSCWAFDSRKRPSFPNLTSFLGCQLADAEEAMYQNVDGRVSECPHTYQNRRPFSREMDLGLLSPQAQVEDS
Procedure: as §1, §2, §3, §4, §5, §6, §7, §8, §9, §10, §11, §12, §13, §14, §15, §16, §17, §18, §19, §20

[3] = target: T3, c-KIT (Homo sapiens, UniProt P10721); experiment: c-KIT recombinant enzyme kinase assay (AlphaScreen); conditions: 100 ATP, 8 pt
T3 construct: purchased Millipore 14-559K
Procedure: as §1, §2, §3, §4, §5, §6, §7, §8, §9, §10, §11, §12, §13, §14, §15, §16, §17, §18, §19, §20

T3 sequence (P10721 26-976): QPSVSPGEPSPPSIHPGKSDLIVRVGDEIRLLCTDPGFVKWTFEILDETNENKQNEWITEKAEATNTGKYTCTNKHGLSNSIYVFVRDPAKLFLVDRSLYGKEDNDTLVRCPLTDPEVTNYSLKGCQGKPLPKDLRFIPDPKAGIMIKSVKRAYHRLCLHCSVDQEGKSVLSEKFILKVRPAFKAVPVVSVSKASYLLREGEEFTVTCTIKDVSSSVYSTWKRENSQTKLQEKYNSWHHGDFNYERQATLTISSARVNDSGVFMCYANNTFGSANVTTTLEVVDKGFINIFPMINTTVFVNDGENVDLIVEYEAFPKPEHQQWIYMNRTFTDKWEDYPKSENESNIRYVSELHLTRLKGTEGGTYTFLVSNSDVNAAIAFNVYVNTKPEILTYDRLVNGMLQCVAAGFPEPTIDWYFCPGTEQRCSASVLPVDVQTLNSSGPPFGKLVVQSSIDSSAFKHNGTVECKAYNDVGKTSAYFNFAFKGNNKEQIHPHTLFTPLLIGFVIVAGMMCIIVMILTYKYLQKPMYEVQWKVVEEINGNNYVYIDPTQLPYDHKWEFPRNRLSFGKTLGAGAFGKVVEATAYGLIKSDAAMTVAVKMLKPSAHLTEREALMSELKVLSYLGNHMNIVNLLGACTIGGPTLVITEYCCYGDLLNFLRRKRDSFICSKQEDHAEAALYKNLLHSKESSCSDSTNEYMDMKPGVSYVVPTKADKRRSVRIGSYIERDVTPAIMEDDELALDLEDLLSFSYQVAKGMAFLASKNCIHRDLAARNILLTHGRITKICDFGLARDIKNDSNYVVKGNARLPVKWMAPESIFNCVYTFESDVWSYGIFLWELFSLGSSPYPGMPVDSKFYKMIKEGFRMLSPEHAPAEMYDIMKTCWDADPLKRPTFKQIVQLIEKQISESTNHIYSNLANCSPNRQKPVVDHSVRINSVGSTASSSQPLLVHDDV

| Structure (SMILES) | IC50 [1] [µM] | IC50 [2] [µM] | IC50 [3] [µM] |
| --- | --- | --- | --- |
| Cn1cc(Nc2ncc(-c3ccc(CC(=O)Nc4cnc(Cl)c(C(F)(F)F)c4)c(F)c3)cn2)cn1 [Compound P-0092, N-[6-chloro-5-(trifluoromethyl)-3-pyridyl]-2-[2-fluoro-4-[2-[(1-methylpyrazol-4-yl)amino]pyrimidin-5-yl]phenyl]acetamide] | 0.0001 to 10 | 0.0001 to 10 | 0.0001 to 10 |
| Cn1cc(Nc2ncc(-c3ccc(CC(=O)NCc4cccnc4)cc3)cn2)cn1 [Compound P-0132, 2-[4-[2-[(1-methylpyrazol-4-yl)amino]pyrimidin-5-yl]phenyl]-N-(3-pyridylmethyl)acetamide] | 0.0001 to 10 | – | 0.0001 to 10 |
| COc1cc(NC(=O)Cc2ccc(-c3cnc(Nc4cnn(C)c4)nc3)cc2)ccn1 [Compound P-0153, N-(2-methoxy-4-pyridyl)-2-[4-[2-[(1-methylpyrazol-4-yl)amino]pyrimidin-5-yl]phenyl]acetamide] | 0.0001 to 10 | – | 0.0001 to 10 |
| Cn1cc(Nc2ncc(-c3ccc(CC(=O)NCc4ncccc4C(F)(F)F)cc3)cn2)cn1 [Compound P-0159, 2-[4-[2-[(1-methylpyrazol-4-yl)amino]pyrimidin-5-yl]phenyl]-N-[[3-(trifluoromethyl)-2-pyridyl]methyl]acetamide] | 0.0001 to 10 | – | 0.0001 to 10 |
| COc1ccccc1CNC(=O)Cc1ccc(-c2cnc(Nc3cnn(C)c3)nc2)cc1 [Compound P-0160, N-[(2-methoxyphenyl)methyl]-2-[4-[2-[(1-methylpyrazol-4-yl)amino]pyrimidin-5-yl]phenyl]acetamide] | 0.0001 to 10 | – | 0.0001 to 10 |
| Cn1cc(Nc2ncc(-c3ccc(CC(=O)Nc4cc(Cl)c(C5CC5)cn4)cc3)cn2)cn1 [Compound P-0164, N-(4-chloro-5-cyclopropyl-2-pyridyl)-2-[4-[2-[(1-methylpyrazol-4-yl)amino]pyrimidin-5-yl]phenyl]acetamide] | 0.0001 to 10 | 0.0001 to 10 | – |
| Cc1ncc(NC(=O)Cc2ccc(-c3cnc4[nH]nc(C)c4c3)c(F)c2)cc1C(F)(F)F [Compound P-0172, 2-[3-fluoro-4-(3-methyl-1H-pyrazolo[3,4-b]pyridin-5-yl)phenyl]-N-[6-methyl-5-(trifluoromethyl)-3-pyridyl]acetamide] | 0.0001 to 10 | 0.0001 to 10 | – |
| COc1ccc(-c2cc3cc(-c4ccc(CC(=O)Nc5cc(C(F)(F)F)ccn5)cc4F)cnc3[nH]2)cn1 [Compound P-0191, 2-[3-fluoro-4-[2-(6-methoxy-3-pyridyl)-1H-pyrrolo[2,3-b]pyridin-5-yl]phenyl]-N-[4-(trifluoromethyl)-2-pyridyl]acetamide] | 0.0001 to 10 | – | – |
| O=C(Cc1ccc(-c2cnc3[nH]c(-c4ccc(N5CCOCC5)nc4)cc3c2)c(F)c1)Nc1cc(C(F)(F)F)ccn1 [Compound P-0192, 2-[3-fluoro-4-[2-(6-morpholino-3-pyridyl)-1H-pyrrolo[2,3-b]pyridin-5-yl]phenyl]-N-[4-(trifluoromethyl)-2-pyridyl]acetamide] | 0.0001 to 10 | 0.0001 to 10 | – |
| O=C(Cc1ccc(-c2cnc3[nH]c(-c4cnn(C(F)F)c4)cc3c2)c(F)c1)Nc1cncc(C(F)(F)F)c1 [Compound P-0197, 2-[4-[2-[1-(difluoromethyl)pyrazol-4-yl]-1H-pyrrolo[2,3-b]pyridin-5-yl]-3-fluoro-phenyl]-N-[5-(trifluoromethyl)-3-pyridyl]acetamide] | 0.0001 to 10 | 0.0001 to 10 | – |
| N#Cc1cc(-c2cc3cc(-c4ccc(CC(=O)Nc5cncc(C(F)(F)F)c5)cc4F)cnc3[nH]2)ccn1 [Compound P-0199, 2-[4-[2-(2-cyano-4-pyridyl)-1H-pyrrolo[2,3-b]pyridin-5-yl]-3-fluoro-phenyl]-N-[5-(trifluoromethyl)-3-pyridyl]acetamide] | 0.0001 to 10 | – | 0.0001 to 10 |

More lines, now with the values ahead:

| IC50 [1] [µM] | IC50 [2] [µM] | IC50 [3] [µM] | Structure (SMILES) |
| --- | --- | --- | --- |
| 0.0001 to 10 | – | – | Cc1cc(-c2cnc3[nH]c(-c4ccccc4)cc3c2)ccc1CC(=O)Nc1cccc(C(F)(F)F)c1 [Compound P-0001, 2-[2-methyl-4-(2-phenyl-1H-pyrrolo[2,3-b]pyridin-5-yl)phenyl]-N-[3-(trifluoromethyl)phenyl]acetamide] |
| 0.0001 to 10 | 0.0001 to 10 | – | O=C(Cc1ccc(-c2cnc3[nH]c(-c4ccccc4)cc3c2)c(F)c1)Nc1cccc(C(F)(F)F)c1 [Compound P-0003, 2-[3-fluoro-4-(2-phenyl-1H-pyrrolo[2,3-b]pyridin-5-yl)phenyl]-N-[3-(trifluoromethyl)phenyl]acetamide] |
| 0.0001 to 10 | 0.0001 to 10 | – | O=C(Cc1ccc(-c2cnc3[nH]c(-c4ccccc4)cc3c2)cc1F)Nc1ccnc(C(F)(F)F)c1 [Compound P-0004, 2-[2-fluoro-4-(2-phenyl-1H-pyrrolo[2,3-b]pyridin-5-yl)phenyl]-N-[2-(trifluoromethyl)-4-pyridyl]acetamide] |
| 0.0001 to 10 | 0.0001 to 10 | 0.0001 to 10 | O=C(Cc1ccc(-c2cnc3[nH]c(-c4ccccc4)cc3c2)cn1)Nc1ccnc(C(F)(F)F)c1 [Compound P-0005, 2-[5-(2-phenyl-1H-pyrrolo[2,3-b]pyridin-5-yl)-2-pyridyl]-N-[2-(trifluoromethyl)-4-pyridyl]acetamide] |
| 0.0001 to 10 | 0.0001 to 10 | 0.0001 to 10 | Cc1ncc(NC(=O)Cc2ccc(-c3cnc(Nc4cnn(C)c4)nc3)cc2F)cc1C(F)(F)F [Compound P-0091, 2-[2-fluoro-4-[2-[(1-methylpyrazol-4-yl)amino]pyrimidin-5-yl]phenyl]-N-[6-methyl-5-(trifluoromethyl)-3-pyridyl]acetamide] |
